Reference: publication PMC3639963, “A New Class of Small Molecule Inhibitor of BMP Signaling” (PLoS ONE, 2013)

How the values were obtained:
Test in all cases: Nanosyn kinase profiling
Type in all cases: biochemical
Details in all cases: read-out: Percentage inhibition; for inhibition at 0.1 µM: 0.1 µM inhibitor; for inhibition at 1 µM: 1 µM inhibitor
AXL = target: T1, AXL (Homo sapiens, UniProt P30530)
T1 construct: purchased Nanosyn (enzymatic panel); SGC in-house recombinant human kinases (DSF panel); Invitrogen (ALK1-6)
T1 sequence (P30530 26-894): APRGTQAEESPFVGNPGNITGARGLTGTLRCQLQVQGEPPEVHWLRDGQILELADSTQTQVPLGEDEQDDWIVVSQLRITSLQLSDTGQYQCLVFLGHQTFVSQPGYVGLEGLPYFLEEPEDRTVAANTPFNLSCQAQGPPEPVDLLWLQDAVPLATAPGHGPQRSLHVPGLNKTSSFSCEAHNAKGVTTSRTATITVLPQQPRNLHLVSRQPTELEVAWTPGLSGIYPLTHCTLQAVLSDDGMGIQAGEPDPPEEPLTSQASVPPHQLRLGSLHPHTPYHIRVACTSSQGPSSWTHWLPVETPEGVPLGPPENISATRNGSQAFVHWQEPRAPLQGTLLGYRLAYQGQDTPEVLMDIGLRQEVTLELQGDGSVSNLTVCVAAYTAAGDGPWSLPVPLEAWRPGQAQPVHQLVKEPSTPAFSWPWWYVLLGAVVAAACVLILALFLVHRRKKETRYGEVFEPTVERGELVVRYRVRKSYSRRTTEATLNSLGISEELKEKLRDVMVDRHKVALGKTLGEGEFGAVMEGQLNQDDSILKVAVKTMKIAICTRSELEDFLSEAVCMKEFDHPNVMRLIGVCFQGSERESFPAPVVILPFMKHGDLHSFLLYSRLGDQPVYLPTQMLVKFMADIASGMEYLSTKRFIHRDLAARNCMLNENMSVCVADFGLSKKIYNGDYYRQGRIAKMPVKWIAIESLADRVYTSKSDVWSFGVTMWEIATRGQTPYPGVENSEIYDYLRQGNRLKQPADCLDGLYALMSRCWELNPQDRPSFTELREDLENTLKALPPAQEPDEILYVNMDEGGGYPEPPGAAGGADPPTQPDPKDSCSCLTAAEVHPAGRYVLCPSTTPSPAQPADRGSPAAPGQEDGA
Protocol: (§1) Percentage inhibition was determined for each kinase at both 0.1 µM and 1 µM inhibitor concentration (supplemental Table S2). […]. […]. When visualized on a kinase phylogenetic tree, these were primarily clustered within the receptor tyrosine kinases (TKs) as well as the calmodulin-dependent kinases (CAMKs) (Figure 2C).
(§2) Inhibitor selectivity profiling against 200 human kinases at 0.1 and 1 µM inhibitor concentration was performed by Nanosyn (www.nanosyn.com).

DCAMKL2 = target: T2, DCAMKL2 (Homo sapiens, UniProt Q8N568)
T2 construct: purchased Nanosyn (enzymatic panel); SGC in-house recombinant human kinases (DSF panel); Invitrogen (ALK1-6)
T2 sequence (Q8N568 1-766): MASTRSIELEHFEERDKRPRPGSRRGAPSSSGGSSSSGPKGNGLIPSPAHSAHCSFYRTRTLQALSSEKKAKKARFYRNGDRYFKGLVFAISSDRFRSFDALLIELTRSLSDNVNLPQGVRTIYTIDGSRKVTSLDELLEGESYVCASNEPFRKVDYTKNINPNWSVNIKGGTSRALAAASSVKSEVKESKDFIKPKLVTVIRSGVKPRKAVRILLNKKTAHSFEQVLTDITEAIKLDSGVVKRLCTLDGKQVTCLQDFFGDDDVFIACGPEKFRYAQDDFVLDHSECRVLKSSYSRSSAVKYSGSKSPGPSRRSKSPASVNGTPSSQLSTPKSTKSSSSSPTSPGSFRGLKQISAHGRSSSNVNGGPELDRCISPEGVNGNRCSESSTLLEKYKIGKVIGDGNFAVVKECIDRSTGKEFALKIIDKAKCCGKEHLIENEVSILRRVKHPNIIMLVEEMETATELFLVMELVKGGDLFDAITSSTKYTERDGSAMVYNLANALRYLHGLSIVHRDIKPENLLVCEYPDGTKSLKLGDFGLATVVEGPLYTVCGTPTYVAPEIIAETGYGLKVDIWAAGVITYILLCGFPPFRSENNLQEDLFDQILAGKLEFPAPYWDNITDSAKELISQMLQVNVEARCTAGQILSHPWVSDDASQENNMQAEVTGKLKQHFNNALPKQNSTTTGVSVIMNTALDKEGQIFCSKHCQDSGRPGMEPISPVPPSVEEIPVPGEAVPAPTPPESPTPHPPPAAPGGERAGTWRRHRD
Protocol: as §1, §2

EGFR = target: T3, EGFR (Homo sapiens, UniProt P00533)
T3 construct: purchased Nanosyn (enzymatic panel); SGC in-house recombinant human kinases (DSF panel); Invitrogen (ALK1-6)
Protocol: as §1, §2

GRK6 = target: T4, GRK6 (Homo sapiens, UniProt P43250)
T4 construct: purchased Nanosyn (enzymatic panel); SGC in-house recombinant human kinases (DSF panel); Invitrogen (ALK1-6)
Protocol: as §1, §2

JAK2 = target: T5, JAK2 (Homo sapiens, UniProt O60674)
T5 construct: purchased Nanosyn (enzymatic panel); SGC in-house recombinant human kinases (DSF panel); Invitrogen (ALK1-6)
Protocol: as §1, §2

PLK1 = target: T6, PLK1 (Homo sapiens, UniProt P53350)
T6 construct: purchased Nanosyn (enzymatic panel); SGC in-house recombinant human kinases (DSF panel); Invitrogen (ALK1-6)
Protocol: as §1, §2

SGK1 = target: T7, SGK1 (Homo sapiens, UniProt O00141)
T7 construct: purchased Nanosyn (enzymatic panel); SGC in-house recombinant human kinases (DSF panel); Invitrogen (ALK1-6)
T7 sequence (O00141 1-431): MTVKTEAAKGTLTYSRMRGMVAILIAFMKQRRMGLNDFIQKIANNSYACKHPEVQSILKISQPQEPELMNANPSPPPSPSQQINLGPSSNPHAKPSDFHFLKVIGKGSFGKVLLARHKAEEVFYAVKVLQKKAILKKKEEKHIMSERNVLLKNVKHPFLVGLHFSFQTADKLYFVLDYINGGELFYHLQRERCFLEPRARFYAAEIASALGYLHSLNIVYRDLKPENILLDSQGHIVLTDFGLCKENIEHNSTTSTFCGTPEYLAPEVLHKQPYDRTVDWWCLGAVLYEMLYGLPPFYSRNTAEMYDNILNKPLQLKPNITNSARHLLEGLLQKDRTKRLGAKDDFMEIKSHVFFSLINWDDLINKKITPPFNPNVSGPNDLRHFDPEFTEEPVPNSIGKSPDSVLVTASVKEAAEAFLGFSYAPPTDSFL
Protocol: as §1, §2

T3 sequence (P00533 25-1210): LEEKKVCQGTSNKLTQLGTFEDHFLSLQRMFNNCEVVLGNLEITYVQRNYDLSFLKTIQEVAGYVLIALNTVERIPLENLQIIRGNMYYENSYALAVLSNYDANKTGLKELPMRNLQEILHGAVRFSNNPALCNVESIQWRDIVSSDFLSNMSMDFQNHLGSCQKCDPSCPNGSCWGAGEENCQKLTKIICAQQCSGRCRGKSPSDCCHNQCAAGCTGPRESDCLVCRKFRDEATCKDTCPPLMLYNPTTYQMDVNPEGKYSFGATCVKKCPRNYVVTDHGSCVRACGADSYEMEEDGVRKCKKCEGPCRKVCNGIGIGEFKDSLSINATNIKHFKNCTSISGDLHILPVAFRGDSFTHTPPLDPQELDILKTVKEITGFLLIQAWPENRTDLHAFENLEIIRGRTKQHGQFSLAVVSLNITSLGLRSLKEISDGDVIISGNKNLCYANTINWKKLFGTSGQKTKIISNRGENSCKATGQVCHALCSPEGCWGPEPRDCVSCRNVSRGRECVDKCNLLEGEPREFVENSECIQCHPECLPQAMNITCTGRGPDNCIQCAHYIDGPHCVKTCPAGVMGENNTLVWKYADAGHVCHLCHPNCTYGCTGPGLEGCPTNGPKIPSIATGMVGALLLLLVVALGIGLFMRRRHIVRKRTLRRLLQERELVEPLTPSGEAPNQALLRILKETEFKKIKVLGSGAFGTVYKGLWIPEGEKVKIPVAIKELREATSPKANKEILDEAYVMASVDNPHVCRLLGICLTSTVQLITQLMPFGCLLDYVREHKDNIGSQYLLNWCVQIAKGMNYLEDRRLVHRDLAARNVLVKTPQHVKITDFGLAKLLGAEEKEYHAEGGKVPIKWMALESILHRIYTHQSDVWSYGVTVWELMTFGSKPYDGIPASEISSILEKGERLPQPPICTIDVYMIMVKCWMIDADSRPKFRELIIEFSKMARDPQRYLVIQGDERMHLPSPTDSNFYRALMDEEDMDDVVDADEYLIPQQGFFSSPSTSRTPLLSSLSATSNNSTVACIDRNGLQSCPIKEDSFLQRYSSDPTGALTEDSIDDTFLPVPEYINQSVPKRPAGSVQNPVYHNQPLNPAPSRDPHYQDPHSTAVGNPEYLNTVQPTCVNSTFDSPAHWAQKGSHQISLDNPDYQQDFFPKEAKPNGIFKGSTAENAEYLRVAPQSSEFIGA
T5 sequence (O60674 whole entry): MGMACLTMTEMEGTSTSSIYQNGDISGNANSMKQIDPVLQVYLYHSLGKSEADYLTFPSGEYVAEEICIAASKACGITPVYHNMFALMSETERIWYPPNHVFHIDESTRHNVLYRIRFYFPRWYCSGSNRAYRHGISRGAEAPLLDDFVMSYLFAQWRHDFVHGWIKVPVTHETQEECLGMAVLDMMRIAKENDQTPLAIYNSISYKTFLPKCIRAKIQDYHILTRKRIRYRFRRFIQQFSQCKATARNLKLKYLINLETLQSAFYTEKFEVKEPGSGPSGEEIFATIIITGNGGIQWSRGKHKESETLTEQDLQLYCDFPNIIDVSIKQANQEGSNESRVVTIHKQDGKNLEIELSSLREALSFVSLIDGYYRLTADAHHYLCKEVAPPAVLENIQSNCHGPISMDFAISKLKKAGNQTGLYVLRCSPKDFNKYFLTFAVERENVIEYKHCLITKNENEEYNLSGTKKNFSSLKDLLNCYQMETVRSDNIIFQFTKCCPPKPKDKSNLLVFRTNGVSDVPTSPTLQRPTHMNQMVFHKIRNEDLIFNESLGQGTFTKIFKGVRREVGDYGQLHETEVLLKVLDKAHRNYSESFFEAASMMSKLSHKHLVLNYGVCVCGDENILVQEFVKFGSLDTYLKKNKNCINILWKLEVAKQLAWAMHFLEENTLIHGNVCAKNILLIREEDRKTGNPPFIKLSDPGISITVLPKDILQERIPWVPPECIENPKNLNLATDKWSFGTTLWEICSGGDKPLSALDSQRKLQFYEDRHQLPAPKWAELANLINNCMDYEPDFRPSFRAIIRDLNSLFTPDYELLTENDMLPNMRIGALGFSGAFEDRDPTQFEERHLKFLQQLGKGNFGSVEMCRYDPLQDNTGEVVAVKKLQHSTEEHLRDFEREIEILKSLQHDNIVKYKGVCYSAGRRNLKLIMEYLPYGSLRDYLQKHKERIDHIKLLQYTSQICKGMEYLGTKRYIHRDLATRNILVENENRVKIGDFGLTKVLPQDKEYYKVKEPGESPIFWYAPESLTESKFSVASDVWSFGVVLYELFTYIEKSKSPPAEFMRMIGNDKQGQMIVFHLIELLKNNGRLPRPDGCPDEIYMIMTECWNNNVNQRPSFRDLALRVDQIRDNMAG
T6 sequence (P53350 whole entry): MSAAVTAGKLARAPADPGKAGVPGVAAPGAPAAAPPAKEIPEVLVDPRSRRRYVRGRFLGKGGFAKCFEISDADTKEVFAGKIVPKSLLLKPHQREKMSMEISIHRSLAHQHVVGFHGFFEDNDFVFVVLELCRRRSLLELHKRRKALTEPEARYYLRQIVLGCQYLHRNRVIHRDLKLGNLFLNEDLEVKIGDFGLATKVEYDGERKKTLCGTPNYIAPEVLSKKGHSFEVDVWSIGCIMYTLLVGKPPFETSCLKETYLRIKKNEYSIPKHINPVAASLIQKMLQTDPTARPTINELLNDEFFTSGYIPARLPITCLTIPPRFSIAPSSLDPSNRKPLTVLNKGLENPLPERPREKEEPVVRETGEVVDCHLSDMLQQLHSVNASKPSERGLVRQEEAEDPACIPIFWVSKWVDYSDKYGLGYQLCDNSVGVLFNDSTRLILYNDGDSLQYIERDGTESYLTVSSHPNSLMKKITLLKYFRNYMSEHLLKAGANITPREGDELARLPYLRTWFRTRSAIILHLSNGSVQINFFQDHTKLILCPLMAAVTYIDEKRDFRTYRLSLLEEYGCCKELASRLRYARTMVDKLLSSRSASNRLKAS
T4 sequence (P43250 whole entry): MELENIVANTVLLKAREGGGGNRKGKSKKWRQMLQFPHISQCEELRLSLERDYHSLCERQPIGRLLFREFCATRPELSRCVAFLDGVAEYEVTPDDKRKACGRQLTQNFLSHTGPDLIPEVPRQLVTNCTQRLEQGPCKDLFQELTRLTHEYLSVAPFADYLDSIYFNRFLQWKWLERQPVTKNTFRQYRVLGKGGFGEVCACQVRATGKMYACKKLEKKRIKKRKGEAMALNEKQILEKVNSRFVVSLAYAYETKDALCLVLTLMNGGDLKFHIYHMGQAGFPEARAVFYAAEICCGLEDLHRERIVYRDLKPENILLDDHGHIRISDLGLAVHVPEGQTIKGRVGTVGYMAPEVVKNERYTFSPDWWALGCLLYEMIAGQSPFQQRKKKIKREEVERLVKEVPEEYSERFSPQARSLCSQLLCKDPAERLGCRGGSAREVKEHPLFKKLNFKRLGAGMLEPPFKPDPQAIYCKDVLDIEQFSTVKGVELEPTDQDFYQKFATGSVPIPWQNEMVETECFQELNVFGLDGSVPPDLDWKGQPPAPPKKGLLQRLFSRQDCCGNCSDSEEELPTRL

Compound `COc1cc(-c2cc(-c3cccc(O)c3)cnc2N)cc(OC)c1OC` [K02288, 3-[6-amino-5-(3,4,5-trimethoxy-phenyl)-pyridin-3-yl]-phenol] has an inhibition at 0.1 µM (AXL) of 0.9%, an inhibition at 1 µM (AXL) of 1.5% and an inhibition at 0.1 µM (DCAMKL2) of -2%. It also gave an inhibition at 1 µM (DCAMKL2) of 2.3%, an inhibition at 0.1 µM (EGFR) of 2.4% and an inhibition at 1 µM (EGFR) of 12%. The inhibition at 0.1 µM (GRK6) was 0.2%, the inhibition at 1 µM (GRK6) was 1.4% and the inhibition at 0.1 µM (JAK2) was 0%. It also gave an inhibition at 1 µM (JAK2) of 0%, an inhibition at 0.1 µM (PLK1) of -2% and an inhibition at 1 µM (PLK1) of -2%. For the same compound, the inhibition at 0.1 µM (SGK1) was 1.1% and the inhibition at 1 µM (SGK1) was -2%.
With `c1ccc2c(-c3cnn4cc(-c5ccc(N6CCNCC6)cc5)cnc34)ccnc2c1` [LDN-193189] the inhibition at 0.1 µM (AXL) was -4%, the inhibition at 1 µM (AXL) was 1.1% and the inhibition at 0.1 µM (DCAMKL2) was 0.8%. It also gave an inhibition at 1 µM (DCAMKL2) of 3.4%, an inhibition at 0.1 µM (EGFR) of 1.5% and an inhibition at 1 µM (EGFR) of 4.8%. The inhibition at 0.1 µM (GRK6) was 0%, the inhibition at 1 µM (GRK6) was 0.2% and the inhibition at 0.1 µM (JAK2) was 2%. For the same compound, the inhibition at 1 µM (JAK2) was 0.5%, the inhibition at 0.1 µM (PLK1) was 0.8% and the inhibition at 1 µM (PLK1) was 1.3%. For the same compound, the inhibition at 0.1 µM (SGK1) was 1.1% and the inhibition at 1 µM (SGK1) was 0.8%.
